Results from patent publication US8399689B2, “Chrysophaentin antimicrobial compounds that inhibit FtsZ protein” (The United States of America, as represented by the …, priority 2010, dated 2013).
≈ marks a conversion by molar mass, not a printed value. Entries after “also recorded” stand apart in the source; their conditions may differ.

Key:
[1] = tested on: Staphylococcus aureus (SA, ATCC 25923); experiment: Agar disk diffusion assay, S. aureus; assay type: cell-based
Experimental: (§1) Compounds 1-8 were tested for antimicrobial activity against Staphylococcus aureus (SA, ATCC 25923), methicillin-resistant S. aureus (MRSA, ATCC BAA-41), multidrug-resistant S. aureus (MDRSA, ATCC BAA-44), Enterococcus faecium (EF, ATCC 49032), vancomycin-resistant E. Faecium (VRE, ATCC 700221), and Bacillus subtilis (ATCC 49343) using a modified disk diffusion assay and microbroth liquid dilution assays. For disk diffusion assays, agar plates seeded with suspensions of bacteria were prepared by adding 500 μL of a 24 h culture of bacteria to 100 mL of autoclaved Mueller Hinton II agar and cooled to 55° C. Seeded liquid agar (10 mL) was transferred immediately to square Petri dishes and allowed to cool for 1 h. Control drugs used for each microorganism included kanamycin (50 μg) for S. aureus, and nitrofurantoin (25 μg) for MRSA. Following incubation at 37° C. for 18 h, zones of inhibition were measured. MICso values for compounds 1 and 4-8 were determined using a microbroth dilution assay outlined in the Clinical and Laboratory Standards Institute methods for susceptibility tests for bacteria that grow aerobically. Briefly, single bacterial colonies were used to inoculate 4 mL of Trypticase Soy broth (BD) for overnight growth and inoculum for each were diluted to 5×10^5 CFU/mL using the 0.5 McFarland standard. In a 96 well plate (Costar, round bottom), control antibiotics (oxacillin for SA and MRSA, vancomycin for EF and VRE, chloramphenicol for B. subtilis) or natural product inhibitors were added to Muller Hinton II broth (for S. aureus, MRSA, and B. subtilis) or 10% brain heart infusion broth (for E. faecium and VRE) in the first column of the well plates, and serially diluted across the plate, reserving wells for a positive growth control (no treatment). 10 μL of diluted bacteria were added to all wells with the exception of those kept for broth blanks (MHII or brain heart infusion broth only). Plates were incubated at 37° C. overnight and read at absorbance 600 nm on a Molecular Devices plate reader. Growth curves were plotted and ICso values obtained using Kalidagraph software.

[2] = tested on: methicillin-resistant S. aureus (MRSA, ATCC BAA-41); experiment: Agar disk diffusion assay, MRSA; assay type: cell-based, Staphylococcus aureus
Experimental: as §1

[3] = tested on: Enterococcus faecium (EF, ATCC 49032); experiment: Agar disk diffusion assay, E. faecium; assay type: cell-based
Experimental: as §1

[4] = tested on: vancomycin-resistant E. Faecium (VRE, ATCC 700221); experiment: Agar disk diffusion assay, VREF; assay type: cell-based, Enterococcus faecium
Experimental: as §1

[5] = tested on: Staphylococcus aureus (SA, ATCC 25923); experiment: Microbroth dilution assay, S. aureus; assay type: cell-based; conditions: concentration at which growth is reduced by 50%; for MIC50 (μg/mL) S. aureus: microbroth dilution
Experimental: as §1

[6] = tested on: methicillin-resistant S. aureus (MRSA, ATCC BAA-41); experiment: Microbroth dilution assay, MRSA; assay type: cell-based, Staphylococcus aureus; conditions: microbroth dilution, concentration at which growth is reduced by 50%
Experimental: as §1

[7] = tested on: Enterococcus faecium (EF, ATCC 49032); experiment: Microbroth dilution assay, E. faecium; assay type: cell-based; conditions: concentration at which growth is reduced by 50%
Experimental: as §1

[8] = tested on: vancomycin-resistant E. Faecium (VRE, ATCC 700221); experiment: Microbroth dilution assay, VREF; assay type: cell-based, Enterococcus faecium; conditions: microbroth dilution, concentration at which growth is reduced by 50%
Experimental: as §1

[9] = tested on: multidrug-resistant S. aureus (MDRSA, ATCC BAA-44); experiment: Microbroth dilution assay, MDRSA; assay type: cell-based; conditions: Staphylococcus aureus, ATCCBAA44
Experimental: (§2) Compounds 1-8 were tested for antimicrobial activity against Staphylococcus aureus (SA, ATCC 25923), methicillin-resistant S. aureus (MRSA, ATCC BAA-41), multidrug-resistant S. aureus (MDRSA, ATCC BAA-44), Enterococcus faecium (EF, ATCC 49032), vancomycin-resistant E. Faecium (VRE, ATCC 700221), and Bacillus subtilis (ATCC 49343) using a modified disk diffusion assay and microbroth liquid dilution assays. For disk diffusion assays, agar plates seeded with suspensions of bacteria were prepared by adding 500 μL of a 24 h culture of bacteria to 100 mL of autoclaved Mueller Hinton II agar and cooled to 55° C. Seeded liquid agar (10 mL) was transferred immediately to square Petri dishes and allowed to cool for 1 h. Control drugs used for each microorganism included kanamycin (50 μg) for S. aureus, and nitrofurantoin (25 μg) for MRSA. Following incubation at 37° C. for 18 h, zones of inhibition were measured. MICso values for compounds 1 and 4-8 were determined using a microbroth dilution assay outlined in the Clinical and Laboratory Standards Institute methods for susceptibility tests for bacteria that grow aerobically. […] Plates were incubated at 37° C. overnight and read at absorbance 600 nm on a Molecular Devices plate reader. […]

[10] = tested on: Bacillus subtilis (ATCC 49343); experiment: Microbroth dilution assay, B. subtilis; assay type: cell-based; conditions: ATCC49343
Experimental: as §2

recombinant E. coli FtsZ [11] = biological target: T1, recombinant E. coli FtsZ (Escherichia coli, UniProt P0A9A6); experiment: FtsZ GTPase colorimetric (malachite green) assay; assay type: biochemical; conditions: 2 μM FtsZ, 0.25 mM GTP, pH 6.5
T1 sequence (P0A9A6 whole entry): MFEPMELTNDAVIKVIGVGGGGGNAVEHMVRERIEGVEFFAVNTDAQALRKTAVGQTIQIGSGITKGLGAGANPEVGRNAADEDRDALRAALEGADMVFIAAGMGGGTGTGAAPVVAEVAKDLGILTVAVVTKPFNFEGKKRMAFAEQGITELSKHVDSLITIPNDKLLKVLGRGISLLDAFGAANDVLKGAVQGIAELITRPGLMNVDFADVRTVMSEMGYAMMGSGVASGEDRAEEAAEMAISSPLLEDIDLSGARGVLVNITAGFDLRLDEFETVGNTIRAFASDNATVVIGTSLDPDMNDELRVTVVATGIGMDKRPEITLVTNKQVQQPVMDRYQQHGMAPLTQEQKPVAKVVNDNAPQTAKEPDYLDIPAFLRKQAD
Experimental: Solutions were incubated at room temperature for 5 min, followed by addition of 0.25 mM GTP. At the end of a 20-min incubation period, enzyme activity was quenched by addition of 50 μL Malachite Green solution and the wells read at A^625 on an absorbance plate reader.

tubulin = experiment: Tubulin polymerization assay; assay type: biochemical; conditions: for effect on tubulin polymerization: at 150 μM, 15 times its IC50 for FtsZ
[12] = tested on: human colon tumor cell line HCT-116; experiment: Cytotoxicity, HCT-116; assay type: cell-based; conditions: did not inhibit growth at concentrations as high as
[13] = tested on: murine leukemia cell line P388; experiment: Cytotoxicity, P388; assay type: cell-based; conditions: did not inhibit growth at concentrations as high as
[14] = tested on: control mammalian cell line BSC-1; experiment: Cytotoxicity, BSC-1 control cells; assay type: cell-based; conditions: no cytotoxicity at concentrations as high as
GTP binding site of FtsZ = GTP binding site of FtsZ (Escherichia coli, UniProt P0A9A6); experiment: Competition STD NMR with GTPγS; parameters: species or system E. coli; conditions: for mode of binding relative to GTP/GTPγS: GTPγS titration 0.5-3.0 equivalents
Sequence of GTP binding site of FtsZ (P0A9A6 whole entry, the tested form may be a part): as the sequence (P0A9A6 whole entry) above

[15] = tested on: Gram-positive pathogens (S. aureus, B. subtilis, E. faecium, MRSA, MDRSA, VREF); experiment: Disk diffusion and microbroth dilution assays, strains taken together; assay type: cell-based
Source text: Solid agar disk diffusion and microbroth dilution assays were used to evaluate the antimicrobial activities of compounds 1, hexaacetate 1a, and 4-8 toward clinically relevant, Gram-positive pathogens, including the drug-susceptible bacteria Staphylococcus aureus, Bacillus subtilis and Enterococcus faecium, and drug-resistant strains methicillin-resistant S. aureus (MRSA), multidrug-resistant S. aureus (MDRSA), and vancomycin-resistant E. faecium (VREF) (see Table 7, Example 2).
as §2, with “aerobically. Briefly, single bacterial colonies were used to inoculate 4 mL of Trypticase Soy broth (BD) for overnight growth and inoculum for each were diluted to 5×10^5 CFU/mL using the 0.5 McFarland standard.” for “aerobically.”

recombinant E. coli FtsZ [16] = biological target: T1, recombinant E. coli FtsZ; experiment: FtsZ polymerization assay by transmission electron microscopy; conditions: 50 μM compound, 6 μM FtsZ, GTP 1 mM
Experimental: Protofilament formation of E. coli FtsZ was assessed by polymerization assays. […] Following an additional 5 minutes incubation period at room temperature, aliquots (5 μL) were adsorbed onto carbon films on lacey carbon supports on 400-mesh copper grids, rinsed with H2O, and exposed to 3% uranyl acetate for 5 minutes for negative staining. Images were acquired with an FEI Morgani transmission electron microscope, operating at 80 kV, and equipped with an AMT Advantage camera at 44,000× magnification.

[17] = Lowest concentrations leading to 8-10 mm zones of inhibition

Which results are given for Oc1cc(O)c2c(c1)C/C(Cl)=C\Cc1cc(c(Cl)cc1O)Oc1c(O)cc(cc1O)C/C(Cl)=C\Cc1cc(c(Cl)cc1O)O2 [Compound 1, chrysophaentin 1]?
Agar disk diffusion (μg/disk) S. aureus [1, 17]: 2 μg/disk; zone of inhibition at 2 µg/disc ([1]; Staphylococcus aureus, ATCC25923, at 2 μg/disk): 10 mm; Agar disk diffusion (μg/disk) MRSA [2, 17]: 2 μg/disk; zone of inhibition at 2 µg/disc ([2]; Staphylococcus aureus, at 2 μg/disk): 10 mm; zone of inhibition at 2 µg/disc ([3]; Enterococcus faecium, ATCC49032, at 2 μg/disk): 10 mm; Agar disk diffusion (μg/disk) E. faecium [3, 17]: 2 μg/disk; zone of inhibition at 2 µg/disc ([4]; Enterococcus faecium, at 2 μg/disk): 10 mm; Agar disk diffusion (μg/disk) VREF [4, 17]: 2 μg/disk; MIC50 ([5]; Staphylococcus aureus, ATCC25923, microbroth dilution, read-out: MIC50 (μg/mL) S. aureus): 1.8 ± 0.6 µg/mL (≈ 2.65 µM); MIC50 (μg/mL) S. aureus [5]: 1.8 ± 0.6 µg/mL (≈ 2.65 µM); MIC50 (μg/mL) S. aureus ([5]; listed as chrysophaentin 1): 1.8 ± 0.6 µg/mL (≈ 2.65 µM); MIC50 ([6]; Staphylococcus aureus, read-out: MIC50 (μg/mL) MRSA): 1.5 ± 0.7 µg/mL (≈ 2.21 µM); MIC50 (μg/mL) MRSA [6]: 1.5 ± 0.7 µg/mL (≈ 2.21 µM); MIC50 (μg/mL) MRSA ([6]; listed as Chrysophaentin 1): 1.8 ± 0.6 µg/mL (≈ 2.65 µM); MIC50 (μg/mL) MRSA ([6]; listed as chrysophaentin 1): 1.5 ± 0.7 µg/mL (≈ 2.21 µM); MIC50 ([7]; Enterococcus faecium, ATCC49032, microbroth dilution, read-out: MIC50 (μg/mL) E. faecium): 3.8 ± 1.9 µg/mL (≈ 5.6 µM); MIC50 (μg/mL) E. faecium ([7]; microbroth dilution): 3.5 ± 1.8 µg/mL (≈ 5.16 µM); MIC50 ([8]; Enterococcus faecium, read-out: MIC50 (μg/mL) VREF): 2.9 ± 0.8 µg/mL (≈ 4.28 µM); MIC50 (μg/mL) VREF [8]: 2.8 ± 0.8 µg/mL (≈ 4.13 µM); MIC50 (μg/mL) VREF ([8]; listed as Chrysophaentin 1): 2.8 ± 0.8 µg/mL (≈ 4.13 µM); MIC50 [9]: 1.3 ± 0.4 µg/mL (≈ 1.92 µM); MIC50 [10]: 7.3 ± 3.7 µg/mL (≈ 10.8 µM); IC50 (recombinant E. coli FtsZ [11]; IC50, inhibition of GTPase activity of FtsZ (molar), value in brackets): 9.9 µM; IC50 (recombinant E. coli FtsZ [11]; IC50, inhibition of GTPase activity of FtsZ): 9.88 µM; selectivity for FtsZ over tubulin (tubulin): ≥ 15 fold; effect on tubulin polymerization (tubulin; listed as chrysophaentin 1): no effect; also recorded: does not affect; effect on tubulin polymerization (tubulin; listed as compound 1): no effect; tubulin polymerization velocity v (tubulin; chrysophaentin 1 at 150 μM, paclitaxel, nocodazole at standardized concentrations): 49 min⁻¹; concentration without growth inhibition, HCT-116 [12]: > 50 µg/mL; concentration without growth inhibition, P388 [13]: > 50 µg/mL; concentration without cytotoxicity, BSC-1 [14]: > 100 µg/mL; decrease in STD NMR signal intensity of compound on addition of GTPγS (GTP binding site of FtsZ; 0.5 equivalents GTPγS (625 μM), 1.25 mM compound, 12.5 μM FtsZ): ~50%; mode of binding relative to GTP/GTPγS (GTP binding site of FtsZ; listed as chrysophaentin 1): in a competitive manner; also recorded: bind competitively; mode of binding relative to GTP/GTPγS (GTP binding site of FtsZ; listed as compound 1): competitive inhibitor of GTP binding to FtsZ; potency relative to chrysophaentin 6 [15]: 3-5 times; GTP-dependent FtsZ polymerization and protofilament formation (TEM) (recombinant E. coli FtsZ [16]): polymerization and protofilament formation were inhibited; also recorded: fully inhibited polymerization and protofilament formation
